# pIC50: −log10 of the molar value.
# What was measured:
# [1] = Metabolic stability in liver microsomes, mouse; assay type: in vitro ADME; settings: 1 μM, 0.5 mg/mL
# Protocol: Objective: To test the metabolic stability of the test compound in liver microsomes of three species.
# Procedures: 1 μM test compound and microsomes (0.5 mg/mL) were incubated at 37° C. in the presence of an NADPH regeneration system. Positive controls were testosterone ([…]), propylamine propiophenone (2D6 substrate) and diclofenac (2C9 substrate). At 37° C., positive controls were incubated with microsomes (0.5 mg/mL) in the presence of an NADPH regeneration system. The reaction was stopped by direct mixing of the sample with cold acetonitrile containing an internal standard at various time points (0, 5, 10, 20, 30 and 60 min). The compound and microsomes were incubated for 60 min in the absence of an NADPH regeneration system. One replicate (n=1) was set at each time point. The samples were analyzed by LC/MS/MS; the concentration of the compound was characterized by the ratio of the analyte peak area to the internal standard peak area.
# PARylation in Lovo cells = experiment: PARylation inhibition in Lovo cells; assay type: cell-based; settings: Homo sapiens, 25 mM H2O2
# Protocol: Experimental materials: test compounds, F12K medium, Lovo cells, Anti-Poly (ADP-ribose) mouse monoclonal antibody; FITC-labeled goat anti-mouse IgG; hydrogen peroxide; DAPI; PBS; methanol; acetone; Tween-20; skimmed milk powder; Envision Multimode Plate Reader.
# Day One: Lovo cells were seeded on a plate at 60,000 cells/well, and then incubated overnight at 37° C./5% CO2.
# 1. Washing solution: Tween-20 was added to 1×PBS, and the final concentration of Tween-20 was 0.05%.
# 2. Blocking solution: Skimmed milk powder was added to the washing solution, and the final concentration of the skimmed milk powder was 5%.
# 3. Cell immobilization solution: Methanol and acetone were mixed in a ratio of 7:3.
# Preparation of test compounds: Compound intermediate plate 1: The compound was diluted to final concentrations of 10 μM to 0.13 nM with DMSO and PBS, and the concentration of DMSO was 1%; Compound intermediate plate 2: The compound was diluted to final concentrations of 10 μM to 0.13 nM with DMSO and PBS containing 50 mM hydrogen peroxide, and the concentration of DMSO was 1%.
# 1. […]
# 10. […] After removal of the liquid, corresponding fluorescence values were read on Envision: FITC: 480 nm and 530 nm; DAPI: 360 nm and 460 nm. […]
# CYP2D6 = CYP2D6 (Homo sapiens (Human), UniProt P10635); experiment: Inhibition against cytochrome P450 isoenzymes, CYP2D6; assay type: in vitro ADME; settings: human liver microsomes
# Protocol: The inhibition of the test compound against different subtypes of the human cytochrome P450 isoenzyme was determined. The test compound, a standard inhibitor (100×final concentration) and a mixed substrate working solution were prepared; the microsomes frozen in a refrigerator at −80° C. were taken out and thawed. […]
# Sequence of CYP2D6 (P10635 whole entry): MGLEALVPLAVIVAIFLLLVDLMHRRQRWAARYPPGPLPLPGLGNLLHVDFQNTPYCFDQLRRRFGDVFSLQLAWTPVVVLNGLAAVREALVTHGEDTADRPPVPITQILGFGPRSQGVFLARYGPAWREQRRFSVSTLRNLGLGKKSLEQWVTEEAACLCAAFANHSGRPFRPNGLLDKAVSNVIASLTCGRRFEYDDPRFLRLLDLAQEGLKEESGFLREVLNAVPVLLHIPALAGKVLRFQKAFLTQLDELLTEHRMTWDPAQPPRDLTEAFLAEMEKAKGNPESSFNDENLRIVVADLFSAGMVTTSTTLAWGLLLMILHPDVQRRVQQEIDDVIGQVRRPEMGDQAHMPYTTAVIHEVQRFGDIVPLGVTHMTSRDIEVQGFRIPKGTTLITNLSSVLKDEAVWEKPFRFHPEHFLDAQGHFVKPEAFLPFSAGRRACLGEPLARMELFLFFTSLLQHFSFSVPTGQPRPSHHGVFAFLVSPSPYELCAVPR
compound,measurement,setting,value
C[C@]1(c2ccc(-c3[nH]c4cc(F)cc5c4c3CONC5=O)cc2)CCCN1 [Compound 1],Residual content after 60 min of incubation,[1],40.7%
same,pIC50,PARylation in Lovo cells,7.72
same,IC50,CYP2D6,11.6 µM

# Reference: patent US20230331739A1, “INDOLO HEPTAMYL OXIME ANALOG CRYSTAL AS PARP INHIBITOR AND METHOD FOR PREPARING SAME” (CHIA TAI TIANQING PHARMACEUTICAL GROUP CO., LTD., priority 2020, published 2023)
